{"source": "patent US20220332706A1", "about": "“CRYSTALLINE FORMS OF A JAK2 INHIBITOR” (Impact Biomedicines, Inc., priority 2019, published 2022)", "format_in_all_cases": "physicochemical", "key": {"[1]": {"experiment": "Solubility assessment, visually estimated by dosing solvent aliquots into 10.0 mg API", "settings": "thermodynamic from solid", "protocol": "Solubility was assessed in an array of diverse solvents in order to facilitate the selection of solvent systems and corresponding dosing strategies for the subsequent crystal-form screening experiments."}, "[2]": {"experiment": "Relative stability (competitive ripening) study of Forms A and B", "settings": "for Final Form Observed: seven days, suspension of ~10 mg Form A and ~10 mg Form B", "protocol": "Saturated suspensions of Form A were prepared by stirring excess Form A in the specified solvent system. The suspension was stirred overnight at 25° C. A clarifying filtration was performed and the filtrate was added to a 2 mL vial containing ˜10 mg of Form A and ˜10 mg of Form B. The resulting suspensions were stirred at 25° C. for seven days, isolated, dried under vacuum for 45 minutes, and analyzed by FT-Raman."}, "[3]": {"experiment": "Characterization of crystal forms: behaviour under ambient conditions"}, "[4]": {"experiment": "Moisture sorption/desorption isotherms (DVS)", "settings": "25° C., first sorption cycle 0 to 75% RH, desolvation with solvent exchange induced by water vapour", "protocol": "Moisture sorption/desorption isotherms. All experiments were performed on a DVS-1 automated gravimetric vapour sorption analyser (Surface Measurement Systems Ltd., London, UK). The DVS measures the uptake and loss of vapour gravimetrically using a Cahn D200 recording ultra-microbalance with a mass resolution of ±0.1 μg. A controlled relative humidity is generated by mixing different proportions of dry and water saturated carrier gas streams (monitored by mass flow controllers). The temperature was maintained constant, ±0.1° C., by enclosing the entire system in a temperature-controlled incubator. A sample size around 10 mg was used. Prior to being exposed to any water vapour the samples were dried at 0% relative humidity (RH) to remove any surface water present and establish a dry, baseline mass. […] Two consecutive cycles were recorded. From the complete moisture sorption and desorption profile an isotherm was calculated using the DVS Advanced Analysis Suite v3.6. […]\nDVS curves are carried out at 25° C. on hexafluoroisopropanol solvate (FIG. 18). After 6 hours under nitrogen a weight loss of 5% is recorded (a partial desolvation is observed with a pre-treatment at 25° C.). During the first sorption cycle, an important weight loss is recorded between 0 and 75% RH (around 30%). […]"}}, "note": "Read-outs that look alike come from different tables or passages of the source.", "data": [{"compound": "Cc1cnc(Nc2ccc(OCCN3CCCC3)cc2)nc1Nc1cccc(S(=O)(=O)NC(C)(C)C)c1", "note": "[Form A]", "values": [{"measurement": "solubility", "setting": "[1]; all other solvents evaluated (of 12; not DMSO, MeOH, water), organic solvent or mixture, in all other solvents evaluated, read-out: low solubility", "result": "≤ 5000", "unit": "µg/mL"}, {"measurement": "solubility", "setting": "[1]; organic solvent or mixture, DCM, 40° C., read-out: Solubility at 40° C.", "result": "< 5000", "unit": "µg/mL"}, {"measurement": "solubility", "setting": "[1]; organic solvent or mixture, DCM, RT, read-out: Solubility at RT", "result": "< 5000", "unit": "µg/mL"}, {"measurement": "solubility", "setting": "[1]; organic solvent or mixture, DMSO, RT, read-out: Solubility at RT", "result": "> 400000", "unit": "µg/mL"}, {"measurement": "solubility", "setting": "[1]; organic solvent or mixture, EtOAc, 40° C., read-out: Solubility at 40° C.", "result": "< 5000", "unit": "µg/mL"}, {"measurement": "solubility", "setting": "[1]; organic solvent or mixture, EtOAc, RT, read-out: Solubility at RT", "result": "< 5000", "unit": "µg/mL"}, {"measurement": "solubility", "setting": "[1]; organic solvent or mixture, IPA, 40° C., read-out: Solubility at 40° C.", "result": "< 5000", "unit": "µg/mL"}, {"measurement": "solubility", "setting": "[1]; organic solvent or mixture, IPA, RT, read-out: Solubility at RT", "result": "< 5000", "unit": "µg/mL"}, {"measurement": "solubility", "setting": "[1]; organic solvent or mixture, IPA:water (9:1) v/v, 40° C., read-out: Solubility at 40° C.", "result": "> 5000", "unit": "µg/mL"}, {"measurement": "solubility", "setting": "[1]; organic solvent or mixture, IPA:water (9:1) v/v, RT, read-out: Solubility at RT", "result": "< 5000", "unit": "µg/mL"}, {"measurement": "solubility", "setting": "[1]; organic solvent or mixture, IPE, 40° C., read-out: Solubility at 40° C.", "result": "< 5000", "unit": "µg/mL"}, {"measurement": "solubility", "setting": "[1]; organic solvent or mixture, IPE, RT, read-out: Solubility at RT", "result": "< 5000", "unit": "µg/mL"}, {"measurement": "solubility", "setting": "[1]; organic solvent or mixture, MTBE, 40° C., read-out: Solubility at 40° C.", "result": "< 5000", "unit": "µg/mL"}, {"measurement": "solubility", "setting": "[1]; organic solvent or mixture, MTBE, RT, read-out: Solubility at RT", "result": "< 5000", "unit": "µg/mL"}, {"measurement": "solubility", "setting": "[1]; organic solvent or mixture, MeCN, 40° C., read-out: Solubility at 40° C.", "result": "< 5000", "unit": "µg/mL"}, {"measurement": "solubility", "setting": "[1]; organic solvent or mixture, MeCN, RT, read-out: Solubility at RT", "result": "< 5000", "unit": "µg/mL"}, {"measurement": "solubility", "setting": "[1]; organic solvent or mixture, MeOH, RT, read-out: Solubility at RT", "result": "> 400000", "unit": "µg/mL"}, {"measurement": "solubility", "setting": "[1]; organic solvent or mixture, THF, 40° C., read-out: Solubility at 40° C.", "result": "< 5000", "unit": "µg/mL"}, {"measurement": "solubility", "setting": "[1]; organic solvent or mixture, THF, RT, read-out: Solubility at RT", "result": "< 5000", "unit": "µg/mL"}, {"measurement": "solubility", "setting": "[1]; organic solvent or mixture, Toluene, 40° C., read-out: Solubility at 40° C.", "result": "< 5000", "unit": "µg/mL"}, {"measurement": "solubility", "setting": "[1]; organic solvent or mixture, Toluene, RT, read-out: Solubility at RT", "result": "< 5000", "unit": "µg/mL"}, {"measurement": "solubility", "setting": "[1]; Water, RT, read-out: Solubility at RT", "result": "100000 to 400000", "unit": "µg/mL"}, {"measurement": "solubility", "setting": "[1]; in DMSO, MeOH, and water", "result": "> 100000", "unit": "µg/mL"}, {"measurement": "relative stability of hydrates", "setting": "[2]; 25° C., over the entire water activity range", "result": "stable hydrate"}, {"measurement": "Final Form Observed", "setting": "[2]; Acetone:Water (83:17), water activity 0.75, 25 °C", "result": "Form A"}, {"measurement": "Final Form Observed", "setting": "[2]; Ethanol, water activity 0, 25 °C", "result": "Form A"}, {"measurement": "Final Form Observed", "setting": "[2]; Methanol:Water (73:27), water activity 0.5, 25 °C", "result": "Form A"}, {"measurement": "Final Form Observed", "setting": "[2]; Water, water activity 1, 25 °C", "result": "Form A"}]}, {"compound": "Cc1cnc(Nc2ccc(OCCN3CCCC3)cc2)nc1Nc1cccc(S(=O)(=O)NC(C)(C)C)c1", "note": "[Form I]", "values": [{"measurement": "physical stability of the solvate", "setting": "[3]", "result": "efflorescent solvate"}]}, {"compound": "Cc1cnc(Nc2ccc(OCCN3CCCC3)cc2)nc1Nc1cccc(S(=O)(=O)NC(C)(C)C)c1", "note": "[Form H]", "values": [{"measurement": "form change during DVS", "setting": "[4]", "result": "transform into Form B"}]}]}
